Test results from ChEMBL document CHEMBL5634069, “Exploring N-myristoyltransferase as a promising drug target against parasitic neglected tropical diseases” (Eur J Med Chem, 2023).
pEC50, pIC50, pKi: −log10 of the molar value.

Experiments:
Leishmania donovani [1] = test: Antileishmanial activity against Leishmania donovani MHOM/ET/67/HU3 axenic amastigotes; type: functional, organism-based
[2] = Cytotoxicity against MDCK cells incubated overnight by MTT assay; type: toxicity, cell-based, Canis lupus familiaris; conditions: dog
Plasmodium falciparum [3] = test: Antiplasmodial activity against trophozoite stage Plasmodium falciparum 3D7 assessed as inhibition of plasmodial growth measured after 48 hrs by flow cytometry analysis; type: functional, organism-based; conditions: 3D7, 48 h
[4] = Selectivity index, ratio of IC50 for MDCK cells to IC50 for trophozoite stage Plasmodium falciparum 3D7; type: toxicity; conditions: dog; read-out: Ratio IC50
Plasmodium falciparum [5] = test: Antiplasmodial activity against chloroquine resistant Plasmodium falciparum K1 assessed as inhibition of plasmodial growth measured after 48 hrs by flow cytometry analysis; type: functional, organism-based; conditions: K1, 48 h
[6] = target: T1, Glycylpeptide N-tetradecanoyltransferase (Plasmodium falciparum, UniProt Q9U419); test: Inhibition of recombinant N-terminal Plasmodium falciparum NMT expressed in Escherichia coli using peptide substrate preincubated for 5 mins followed by substrate addition and measured after 30 mins by scintillation proximity assay
T1 sequence (Q9U419 whole entry): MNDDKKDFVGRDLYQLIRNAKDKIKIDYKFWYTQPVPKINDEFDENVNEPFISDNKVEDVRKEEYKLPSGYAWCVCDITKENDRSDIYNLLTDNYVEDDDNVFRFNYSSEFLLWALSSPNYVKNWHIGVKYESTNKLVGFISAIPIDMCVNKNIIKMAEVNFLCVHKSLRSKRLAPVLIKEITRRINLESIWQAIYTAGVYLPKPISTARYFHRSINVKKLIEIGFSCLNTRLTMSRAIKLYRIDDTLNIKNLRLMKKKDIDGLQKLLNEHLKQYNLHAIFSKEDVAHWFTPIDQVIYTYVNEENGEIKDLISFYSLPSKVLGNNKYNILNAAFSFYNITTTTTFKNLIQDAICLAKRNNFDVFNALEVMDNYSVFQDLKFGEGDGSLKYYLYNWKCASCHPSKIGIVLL

Plasmodium falciparum [7] = test: Antiplasmodial activity against synchronized late stage trophozoite Plasmodium falciparum 3D7 assessed as reduction in parasitemia relative to control; type: functional; parameters: scale not given: the % may be the effect or the level left
[8] = Inhibition of Trypanosoma brucei NMT
Leishmania donovani [9] = test: Antileishmanial activity against Leishmania donovani MHOM/ET/67/HU3 infected in BALB/c mouse model assessed as reduction in parasitic load at 50 mg/kg, po measured after 5 days relative to control; type: functional; parameters: scale not given: the % may be the effect or the level left; conditions: time 5 day
[10] = Binding affinity to Leishmania donovani NMT assessed as apparent inhibition constant; conditions: read-out: Ki(app)
Leishmania donovani [11] = test: Antileishmanial activity against Leishmania donovani amastigotes; type: functional, organism-based
Leishmania donovani [12] = test: Antileishmanial activity against Leishmania donovani promastigotes; type: functional, organism-based
Leishmania amazonensis = test: Antileishmanial activity against Leishmania amazonensis IFLA/BR/1967/PH8 promastigote; type: functional, organism-based
Leishmania donovani [13] = test: Antileishmanial activity against Leishmania donovani promastigote assessed as reduction in parasite growth measured after 72 hrs; type: functional, organism-based
[14] = system: Trypanosoma brucei brucei; test: Antitrypanosomal activity against bloodstream Trypanosoma brucei brucei s427 assessed as reduction in parasite growth measured after 72 hrs by inverted microscope based analysis; type: functional, organism-based; conditions: s427, 72 h
[15] = target: T2, Glycylpeptide N-tetradecanoyltransferase 1 (Homo sapiens, UniProt P30419); test: Inhibition of human NMT
T2 sequence (P30419 whole entry): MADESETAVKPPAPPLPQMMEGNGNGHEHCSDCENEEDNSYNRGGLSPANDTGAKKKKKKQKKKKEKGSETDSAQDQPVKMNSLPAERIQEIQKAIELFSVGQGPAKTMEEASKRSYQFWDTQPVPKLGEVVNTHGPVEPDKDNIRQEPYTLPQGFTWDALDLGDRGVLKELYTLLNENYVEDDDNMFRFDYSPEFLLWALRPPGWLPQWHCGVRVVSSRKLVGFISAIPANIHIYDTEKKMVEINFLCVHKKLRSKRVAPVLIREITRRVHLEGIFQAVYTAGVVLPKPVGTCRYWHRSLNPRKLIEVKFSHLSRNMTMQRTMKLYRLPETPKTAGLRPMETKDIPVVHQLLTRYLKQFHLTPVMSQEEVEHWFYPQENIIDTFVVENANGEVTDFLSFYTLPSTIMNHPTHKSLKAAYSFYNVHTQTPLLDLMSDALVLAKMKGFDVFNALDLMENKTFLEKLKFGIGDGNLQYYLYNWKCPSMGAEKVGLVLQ

Trypanosoma brucei [16] = test: Antitrypanosomal activity against Trypanosoma brucei assessed as reduction in parasite growth; type: functional, organism-based
Trypanosoma brucei [17] = test: Antiprotozoal activity against blood stream form Trypanosoma brucei assessed as reduction in number of viable parasites measured after 72 hrs by Alamar blue staining based analysis; type: functional; conditions: read-out: ED50 (the source's name)
[18] = Inhibition of N terminal his-6 tagged recombinant Trypanosoma brucei NMT using CAP5.5 peptide as substrate incubated for 10 mins
[19] = Cytotoxicity against mouse RAW 264 cells by alamar blue staining based analysis; type: functional; conditions: RAW264.7, read-out: ED50 (the source's name)
[20] = Inhibition of Trypanosoma brucei NMT by scintillation proximity assay
Trypanosoma cruzi [21] = test: Antiprotozoal activity against Trypanosoma cruzi epimastigotes assessed as reduction in parasite growth relative to control; type: functional; parameters: scale not given: the % may be the effect or the level left
Trypanosoma cruzi [22] = test: Antiprotozoal activity against Trypanosoma cruzi amastigotes measured after 24 hrs; type: functional, organism-based
[23] = Inhibition of Leishmania donovani NMT using 3H-myristoyl CoA as substrate preincubated for 15 mins followed by substrate addition and measured after 80 mins
[24] = target: T3, Glycylpeptide N-tetradecanoyltransferase 2 (Homo sapiens, UniProt O60551); test: Inhibition of human NMT2
T3 sequence (O60551 whole entry): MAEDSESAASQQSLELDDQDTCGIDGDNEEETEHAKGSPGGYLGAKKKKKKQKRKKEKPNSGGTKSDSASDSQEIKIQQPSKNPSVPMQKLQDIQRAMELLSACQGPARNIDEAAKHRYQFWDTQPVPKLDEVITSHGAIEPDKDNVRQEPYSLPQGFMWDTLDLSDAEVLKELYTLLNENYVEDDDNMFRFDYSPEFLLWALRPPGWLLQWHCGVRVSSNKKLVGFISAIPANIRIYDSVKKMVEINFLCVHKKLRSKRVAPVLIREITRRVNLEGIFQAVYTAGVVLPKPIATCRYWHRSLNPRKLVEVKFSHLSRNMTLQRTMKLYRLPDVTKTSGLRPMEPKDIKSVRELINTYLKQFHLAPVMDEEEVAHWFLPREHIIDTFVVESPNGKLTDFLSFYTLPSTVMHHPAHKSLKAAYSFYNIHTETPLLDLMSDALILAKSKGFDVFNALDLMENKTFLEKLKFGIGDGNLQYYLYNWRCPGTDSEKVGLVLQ

[25] = target: T1, Glycylpeptide N-tetradecanoyltransferase; test: Inhibition of recombinant Plasmodium falciparum NMT using 3H-myristoyl CoA as substrate preincubated for 15 mins followed by substrate addition and measured after 80 mins
[26] = target: T2, Glycylpeptide N-tetradecanoyltransferase 1; test: Inhibition of human NMT1
Plasmodium falciparum [27] = test: Antiplasmodial activity against Plasmodium falciparum; type: functional, organism-based
Plasmodium falciparum [28] = test: Antiplasmodial activity against Plasmodium falciparum 3D7 assessed as reduction in parasitemia growth; type: functional, organism-based
[29] = target: T1, Glycylpeptide N-tetradecanoyltransferase; test: Inhibition of recombinant his tagged Plasmodium falciparum NMT expressed in Escherichia coli
[30] = Inhibition of N terminal his-6 tagged recombinant Trypanosoma brucei NMT incubated for 30 mins using biotinylated peptide substrate by scintillation counter analysis

Cc1nn(C)c(C)c1N(C)S(=O)(=O)c1c(Cl)cc(CCCC2CCN(C)CC2)cc1Cl
pEC50 (Leishmania donovani [1]): 5.15

O=S(=O)(c1cc(Cl)ccc1Cl)N1CCC(O[C@H](c2ccc(Cl)cc2)c2ccccn2)CC1
pIC50 [2]: < 3.70
pIC50 (Plasmodium falciparum [3]): 5.66
selectivity ratio [4]: > 92.3
pIC50 (Plasmodium falciparum [5]): 5.62

O=C(Nc1nc2ccccc2s1)[C@H]1CC[C@@H](NCc2ccc3ccccc3c2)CC1
pIC50 [6]: 4.52
Activity (Plasmodium falciparum [7]): 80%

Cc1cc(CN2C(=O)COc3ccccc32)no1
pIC50 [8]: 5.54

Cc1nn(C)c(C)c1N(C(F)F)S(=O)(=O)c1c(Cl)cc(CCCC2CCN(C)CC2)cc1Cl
Activity (Leishmania donovani [9]): 52%
pEC50 (Leishmania donovani [1]): 5.62

Cc1nn(C)c(C)c1NS(=O)(=O)c1c(Cl)cc(-c2ccnc(N3CCNCC3)c2)cc1Cl
pKi [10]: 8.60
pEC50 (Leishmania donovani [11]): 5.15
pEC50 (Leishmania donovani [12]): 4.64

O=C(Nc1nc2cc(F)ccc2s1)[C@H]1CC[C@@H](NCc2ccc3ccccc3c2)CC1
pIC50 [6]: 4.28
Activity (Plasmodium falciparum [7]): 80%

O=C(C[Se]C(=O)c1ccccc1)Nc1ccc(Cl)cc1
pIC50 (Leishmania amazonensis): 5.15

Cc1nn(C)c(Cl)c1S(=O)(=O)Nc1ccc(Oc2ccc(F)cc2)cc1
pIC50 (Leishmania donovani [13]): 4.34
pIC50 [14]: 4.93

O=[N+]([O-])c1ccc(S(=O)(=O)N2CCC(O[C@@H](c3ccc(Cl)cc3)c3ccccn3)CC2)cc1
pIC50 [2]: < 3.70
pIC50 (Plasmodium falciparum [3]): 5.49
selectivity ratio [4]: > 61.1
pIC50 (Plasmodium falciparum [5]): 5.14

O=S(=O)(c1cc(Cl)ccc1Cl)N1CCC(O[C@@H](c2ccc(Cl)cc2)c2ccccn2)CC1
pIC50 [2]: < 3.70
pIC50 (Plasmodium falciparum [3]): 5.54
selectivity ratio [4]: > 68.8
pIC50 (Plasmodium falciparum [5]): 5.38

Cc1cc(CN2C(=O)COc3cc(CCCOC[C@@H]4CCCN4C)ccc32)no1
pIC50 [15]: 4.62
pEC50 (Trypanosoma brucei [16]): 8.15
pIC50 [8]: 8.05

COc1ccc(Br)c(-c2nnc(-c3ccccc3NS(=O)(=O)c3ccc(Cl)cc3)o2)c1
pIC50 [14]: 4.83

CCc1ccc(NC(=O)C[Se]C(=O)c2ccc(Cl)cc2)cc1
pIC50 (Leishmania amazonensis): 5.13

COc1cc(C2SCC(=O)N2Cc2ccccn2)ccc1O (stereo not given)
pEC50 (Trypanosoma brucei [16]): 4.85
pIC50 [8]: 6.57

Cc1cc(CN2C(=O)COc3cc(CCCOC4CCNCC4)ccc32)no1
pEC50 (Trypanosoma brucei [16]): 8.15

CCOC(=O)CN1C(=O)COc2ccccc21
pIC50 [8]: 4.92

CC(=O)O[C@@H]1C2[C@H](N(C)C)C(O)=C(C(N)=O)C(=O)[C@@]2(O)C(O)=C2C(=O)c3c(O)cccc3C(=O)[C@@H]21 (stereo not given in full)
pEC50 (Trypanosoma brucei [17]): 4.18
pIC50 [18]: 6.60
pEC50 [19]: 2.82

Cc1cc(CN2C(=O)COc3c(CCCCC4CCNCC4)cccc32)no1
pEC50 (Trypanosoma brucei [16]): 8.15

Cc1ccc(S(=O)(=O)Nc2ccccc2Sc2ncnc3c(C)csc23)cc1
pIC50 (Leishmania donovani [13]): 4.49
pIC50 [14]: 5.03

COc1ccc(NC(=O)C[Se]C(=O)c2ccccc2)cc1
pIC50 (Leishmania amazonensis): 5.06

Cc1nn(C)c(C)c1NS(=O)(=O)c1c(Cl)cc(Br)cc1Cl
pIC50 [20]: 6.47

Cc1cc(CN2C(=O)COc3c(CCCCC4CCCN(C)CC4)cccc32)no1 (stereo not given)
pIC50 [15]: 7.00
pEC50 (Trypanosoma brucei [16]): 8.15
pIC50 [8]: > 8.70

Cc1c(NS(=O)(=O)c2c(Cl)cc(-c3ccnc(N4CCNCC4)c3)cc2Cl)c(CC(C)C)nn1C [ZELENIRSTAT]
Activity (Trypanosoma cruzi [21]): 0.43%
pEC50 (Trypanosoma cruzi [22]): 5.74

c1cncc(CCNCc2cccc(-c3cccc(CN4CCc5ncsc5C4)c3)c2)c1
pIC50 [23]: 6.80

Cc1nn(C)c(C)c1NS(=O)(=O)c1c(Cl)cc(-c2ccnc(N3CCN(C)CC3)c2)cc1Cl
pKi [10]: 8.20
pEC50 (Leishmania donovani [11]): 6.82

Cc1nn(C)c(C)c1N(C(F)F)S(=O)(=O)c1c(Cl)cc(-c2ccc(CCCCC3CCN(C)CC3)cc2)cc1Cl
pEC50 (Trypanosoma cruzi [22]): 7.70

Cc1ncc(CNC(=O)C2CN(c3nc(NCCN(C)C)ncc3Cl)C2)cn1
pIC50 [24]: 4.12
pIC50 [25]: 6.32
pIC50 [26]: 4.15

Cc1ccc(S(=O)(=O)NC(C)C(=O)NC(C)C(=O)NC23CC4CC(CC(C4)C2)C3)cc1 (stereo not given)
pIC50 (Plasmodium falciparum [27]): 5.44

O=C(C[Se]C(=O)c1ccccc1)Nc1ccc(Br)cc1
pIC50 (Leishmania amazonensis): 5.26

Cc1nc(CN2C(=O)COc3ccccc32)no1
pIC50 [8]: 5.15

CN(C)C(=O)c1ccc2nc(NC(=O)[C@@H]3CCC[C@H](NCc4ccc5ccoc5c4)C3)sc2c1
pIC50 [6]: 4.28

Cc1cc(Nc2ccc([N+](=O)[O-])cc2O)nc2ccccc12
pEC50 (Plasmodium falciparum [28]): 6.40
pIC50 [29]: 5.85

COc1cc(C2SCC(=O)N2Cc2ccccc2)ccc1O (stereo not given)
pIC50 [8]: 4.66

O=C(C[Se]C(=O)c1ccc(Cl)cc1)Nc1ccc(Cl)cc1
pIC50 (Leishmania amazonensis): 5.04

Cc1onc(-c2ccccc2)c1CNS(=O)(=O)c1cnn(-c2ccccc2)c1C
pIC50 (Leishmania donovani [13]): 4.80
pIC50 [14]: 4.35

Cc1cc(CN2C(=O)COc3cc(CCCCC4CCN(C)CC4)ccc32)no1
pEC50 (Trypanosoma brucei [16]): 8.15

Cc1c2c(c(O)c3c(O)cccc13)C(=O)OC2c1cc(O)c(C(N)=O)c(O)c1O (stereo not given)
pEC50 (Trypanosoma brucei [17]): 4.80
pIC50 [18]: 6.34
pIC50 [30]: 6.11
pEC50 [19]: 3.48

O=C(O)C1=CC(=C(c2ccc(O)c(C(=O)O)c2)c2ccc(O)c(C(=O)O)c2)C=CC1=O [AURINTRICARBOXYLIC ACID]
pIC50 [30]: 6.13

CCOC(=O)c1c(C)nn(-c2ccc(NS(=O)(=O)c3ccc(OC)cc3)cc2)c1C
pIC50 (Leishmania donovani [13]): 4.86
pIC50 [14]: 5.54

Cc1cc(CN2C(=O)COc3c(CCCCC4CCN(C)CC4)cccc32)no1
pEC50 (Trypanosoma brucei [16]): 8.15

Cc1nn(C)c(C)c1N(C(F)F)S(=O)(=O)c1c(Cl)cc(-c2ccc(CCCC3CCN(C)CC3)cc2)cc1Cl
pEC50 (Trypanosoma cruzi [22]): 7.22
